Source: US9504747B2, “Lipids and lipid compositions for the delivery of active agents” (Novartis AG, priority 2013, dated 2016)
Values joined by “and” are separate entries in the source; they are usually repeats but may differ in a detail not shown here. Identical values can stand only once.

Experiments:
[1] = Polydispersity index (PDI) of the lipid nanoparticle (dynamic light scattering); type: physicochemical
Description: The lipid nanoparticles (LNPs) were formed by mixing equal volumes of lipids dissolved in alcohol with siRNA dissolved in a citrate buffer by an impinging jet process. […] The siRNA to total lipid ratio is approximately 0.05 (wt/wt). Where a LNP formulation contains four lipid components, the molar ratios correspond to the type of lipid as it appears in the first four columns of the table, in the order that they appear. The ratio of the lipids ranges from 20 to 70 mole percent for the cationic lipid with a target of 40-60, the mole percent of helper lipid ranges from 20 to 70 with a target of 30 to 50, the mole percent of neutral lipid ranges from 0-30, the mole percent of PEG lipid has a range from 1 to 6 with a target of 2 to 5. The concentration of siRNA solution ranges from 0.7 to 1.0 mg/mL with a target of 0.8 to 0.9 mg/mL in a sodium citrate: sodium chloride buffer pH 4-6, with a target of 4.5-5.5. The LNPs are formed by mixing equal volumes of lipid solution in ethanol with siRNA dissolved in a citrate buffer by an impinging jet process through a mixing device with ID ranging from 0.25 to 2.0 mm at a flow rate from 10 to 640 mL/min. The mixed LNP solution is held at room temperature for 0-24 hrs prior to a dilution step. […] The final product is sterile filtered and stored at 4° C. Unless indicated otherwise, all PDIs referred to herein are the PDI of the fully formed nanoparticle, as measured by dynamic light scattering on a Malvern Zetasizer. The nanoparticle sample was diluted in phosphate buffered saline (PBS) so that the count rate was approximately 200-400 kcts. The data is presented in Tables 4 and 5 as a weighted average of the intensity measure.

[2] = system: respiratory syncytial virus F protein; test: Immunization studies: anti-RSV-F titers after liposome-delivered vA317 self-replicating RNA; type: in vivo; settings: BALB/c mice, Course A = days 0 & 21, liposomes with 0.1 μg vA317 replicon (naked control 1 μg)
Experimental: BALB/c were immunized with liposomes comprising DSPC, cholesterol, and various lipids of the invention (or, for comparison, the cationic lipid 1,2-dilinoleyloxy-N,N-dimethyl-3-aminopropane or ‘DLinDMA’). The liposomes encapsulated 0.1 μg of “vA317” self-replicating RNA replicon which encodes respiratory syncytial virus F protein (see WO2012/031043). […] Doses were given either on days 0 & 21 or days 0 & 42. Immune responses were assessed 2 weeks after each dose (2wp1, 2wp2), and in some cases also at 4 weeks after the second dose (4wp2). Four series of experiments were performed, each with its own naked control.

[3] = pKa measurement of the cationic lipid (TNS fluorescence vs pH); type: physicochemical; settings: probe TNS (fluorescent probe), pKa of the cationic lipid of formula (I)
Experimental: Unless indicated otherwise, all pKa's referred to herein were measured at standard temperature and pressure. Also, unless otherwise indicated, all references to pKa are references to pKa measured using the following technique. 2 mM solution of lipid in ethanol was prepared by weighing the lipid and then dissolving it in ethanol. 0.3 mM solution of fluorescent probe TNS in ethanol:methanol 9:1 was prepared by first making 3 mM solution of TNS in methanol and then diluting to 0.3 mM with ethanol. An aqueous buffer containing 200 mM sodium phosphate dibasic and 100 mM citric acid was prepared. […] Using the Hamilton Microlab Star high throughput liquid handler and Hamilton run control software Software, 7.5 uL of probe/lipid mix were added to 242.5 uL of buffer in a 1 mL 96 well plate (model NUNC 260252, […] Nunc International). This was done with all twelve buffers. After mixing in 1 mL 96 well plate, 100 uL of each probe/lipid/buffer mixture was transferred to a 250 uL black with clear bottom 96 well plate (model COSTAR 3904, Corning). The fluorescence measurements are carried out on the SpectraMax M5 spectrophotometer using software SoftMax pro 5.2 and following parameters: After the measurement, the background fluorescence value of an empty well on the 96 well plate was subtracted from each probe/lipid/buffer mixture. The fluorescence intensity values were then normalized to the value at lowest pH. The normalized fluorescence intensity vs. pH chart was then plotted in the Microsoft Excel software. The twelve points were connected with a smooth line. The point on the line at which the normalized fluorescence intensity was equal to 0.5 was found. […] The pKa determined using this method is precise to about 0.1 pKa units.

[4] = Particle size of the lipid nanoparticle (dynamic light scattering, Malvern Zetasizer); type: physicochemical; settings: Table 4, FVII siRNA LNP, Z-average
Description: The lipid nanoparticles have a size of about 1 to about 2,500 nm, about 1 to about 1,500 nm, about 1 to about 1,000 nm, in a sub-embodiment about 50 to about 600 nm, in a sub-embodiment about 50 to about 400 nm, in a sub-embodiment about 50 to about 250 nm, and in a sub-embodiment about 50 to about 150 nm. Unless indicated otherwise, all sizes referred to herein are the average sizes (diameters) of the fully formed nanoparticle, as measured by dynamic light scattering on a Malvern Zetasizer. The nanoparticle sample is diluted in phosphate buffered saline (PBS) so that the count rate is approximately 200-400 kcts. The data is presented as a weighted average of the intensity measure. The lipid nanoparticles (LNPs) were formed by mixing equal volumes of lipids dissolved in alcohol with siRNA dissolved in a citrate buffer by an impinging jet process. […] The siRNA to total lipid ratio is approximately 0.05 (wt/wt). Where a LNP formulation contains four lipid components, the molar ratios correspond to the type of lipid as it appears in the first four columns of the table, in the order that they appear. The ratio of the lipids ranges from 20 to 70 mole percent for the cationic lipid with a target of 40-60, the mole percent of helper lipid ranges from 20 to 70 with a target of 30 to 50, the mole percent of neutral lipid ranges from 0-30, the mole percent of PEG lipid has a range from 1 to 6 with a target of 2 to 5. The concentration of siRNA solution ranges from 0.7 to 1.0 mg/mL with a target of 0.8 to 0.9 mg/mL in a sodium citrate: sodium chloride buffer pH 4-6, with a target of 4.5-5.5. The LNPs are formed by mixing equal volumes of lipid solution in ethanol with siRNA dissolved in a citrate buffer by an impinging jet process through a mixing device with ID ranging from 0.25 to 2.0 mm at a flow rate from 10 to 640 mL/min. The mixed LNP solution is held at room temperature for 0-24 hrs prior to a dilution step. […] The final product is sterile filtered and stored at 4° C. Unless indicated otherwise, all particle size measurements referred to in Tables 4 and 5 are the Z-average particle size of the fully formed nanoparticle, as measured by dynamic light scattering on a Malvern Zetasizer. The nanoparticle sample was diluted in phosphate buffered saline (PBS) so that the count rate is approximately 200-400 kcts.

[5] = Table 4, FVII siRNA LNP, Chol/DSPC/stealth lipid PEG-DMG, 45/44/9/2
[6] = Table 4, FVII siRNA LNP, Chol/DSPC/stealth lipid S010, 45/44/9/2
[7] = Chol/DSPC/stealth lipid PEG-DMG, molar ratio 45/44/9/2
[8] = Chol/DSPC/stealth lipid S010, molar ratio 45/44/9/2

SMILES	PDI [1, 6]	pKa ([3]; Table 4)	Size (nm) [4, 8]	also measured
CCCCC/C=C\C/C=C\CCCCCCCCOc1cc(CN(C)C)cc(OCCCCCCCC/C=C\C/C=C\CCCCC)c1 [Example 2]	0.067	5.57		PDI [1, 5]: 0.04; PDI ([1]; Table 5, PLK1-424 siRNA LNP, stealth lipid S011, 45/44/9/2): 0.1; anti-RSV-F titer 2wp1 pool 1 ([2]; 2 weeks after first dose): 217; anti-RSV-F titer 2wp1 pool 2 ([2]; 2 weeks after first dose): 259; anti-RSV-F titer 2wp2 pool 1 ([2]; 2 weeks after second dose): 12785; anti-RSV-F titer 2wp2 pool 2 ([2]; 2 weeks after second dose): 8232; pKa ([3]; Table 5): 5.57
CCCCC/C=C\C/C=C\CCCCCCCCOc1cc(COC(=O)CCN(C)C)cc(OCCCCCCCC/C=C\C/C=C\CCCCC)c1 [Example 14]	0.059	6.11		anti-RSV-F titer 4wp2 pool 1 ([2]; 4 weeks after second dose): 13687 and 21375; anti-RSV-F titer 4wp2 pool 2 ([2]; 4 weeks after second dose): 18851 and 21347
CCCCC/C=C\C/C=C\CCCCCCCC(=O)OCc1cc(COC(=O)CCCCCCC/C=C\C/C=C\CCCCC)cc(CN(C)C)c1 [Example 33]	0.042	5.85	79.15 nm	PDI [1, 5]: 0.06; Size (nm) [4, 7]: 107.8 nm
CCCCCCCCCCCCC(=O)OCc1cc(COC(=O)CCCCCCCCCCCC)cc(CN(C)C)c1 [Example 34]	0.036	5.95	113.8 nm	PDI [1, 5]: 0.06; Size (nm) [4, 7]: 126.0 nm
CCCCC/C=C\C/C=C\CCCCCCCC(=O)OCCOc1cc(CN(C)C)cc(OCCOC(=O)CCCCCCC/C=C\C/C=C\CCCCC)c1 [Example 40]	0.062	6.17	94.28 nm	PDI [1, 5]: 0.02; Size (nm) [4, 7]: 110.9 nm
CCCCCC(=O)OCCCCCCCCOc1cc(CN(C)C)cc(OCCCCCCCCOC(=O)CCCCC)c1 [Example 41]	0.119	5.83	170.7 nm	
CCCCCC(=O)OCCCCCCCCCCOc1cc(CN(C)C)cc(OCCCCCCCCCCOC(=O)CCCCC)c1 [Example 44]	0.077	5.66	172.9 nm	
CCCCC/C=C\C/C=C\CCCCCCCC(=O)OCCCCCCCCOc1cc(CN(C)C)cc(OCCCCCCCCOC(=O)CCCCCCC/C=C\C/C=C\CCCCC)c1 [Example 46]	0.135	6.18	102.4 nm	
CCCCCCCCCC(=O)OCCCCCCOc1cc(CN(C)C)cc(OCCCCCCOC(=O)CCCCCCCCC)c1 [Example 47]	0.035	6.07	125.9 nm	PDI [1, 5]: 0.06; Size (nm) [4, 7]: 109.3 nm
CCCCCCCC(=O)OCCCCCCOc1cc(CN(C)C)cc(OCCCCCCOC(=O)CCCCCCC)c1 [Example 48]	0.105	5.93	152.3 nm	
CCCCC/C=C\CC=CCCCCCCCC(=O)OCCCCOc1cc(CN(C)C)cc(OCCCCOC(=O)CCCCCCCC=CC/C=C\CCCCC)c1C [Example 51]	0.052		103.2 nm	
CCCCC/C=C\C/C=C\CCCCCCCCOC(=O)CCC(=O)OCc1cc(COC(=O)CCC(=O)OCCCCCCCC/C=C\C/C=C\CCCCC)cc(CN(C)C)c1 [Example 77]	0.014	6.09		
CCCCCCCC(=O)OCCCCCCCCCCOC(=O)CCC(=O)OCc1cc(COC(=O)CCC(=O)OCCCCCCCCCCOC(=O)CCCCCCC)cc(CN(C)C)c1 [Example 78]	0.043	6.02		
CCCCCCCCCC(=O)OCCCCCCCC(=O)OCc1cc(COC(=O)CCCCCCCOC(=O)CCCCCCCCC)cc(CN(C)C)c1 [Example 83]	0.005	6.15		
CCCCC/C=C\C/C=C\CCCCCCCCOC(=O)CCCCOc1cc(CN(C)C)cc(OCCCCC(=O)OCCCCCCCC/C=C\C/C=C\CCCCC)c1 [Example 89]	0.076	6.02		
CCCCCCCCOC(=O)CCCCCCCC(=O)OCCCOc1cc(CN(C)C)cc(OCCCOC(=O)CCCCCCCC(=O)OCCCCCCCC)c1 [Example 98]	0.096	5.94		
CCCCCCCC(=O)OCC(COC(=O)CCCCCCC)OC(=O)CCC(=O)OCc1cc(COC(=O)CCC(=O)OC(COC(=O)CCCCCCC)COC(=O)CCCCCCC)cc(CN(C)C)c1 [Example 107]	0.071	6.11		
CCCCC/C=C\C/C=C\CCCCCCCC(=O)OCCCCOc1cc(CN(C)C)cc(OCCCCOC(=O)CC(CCCCCCCC)CCCCCCCC)c1 [Example 109]	0.09	5.98		
